Test results as given in ChEMBL document CHEMBL1201862, “PubChem BioAssay data set” (2004).
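Test compounds were applied to cells in 96-well plates for 48 hours at 5 doses. GI50 is the concentration that inhibits growth by half.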 The source made the active and inactive calls. No stated cut-off is given here; in the data, active = GI50 up to about 1.1 µM and inactive = higher.

Assays:
Assay in all cases: NCI anticancer screen, dose series, 48 h
[1] = tested on: SK-MEL-5
[2] = tested on: UO-31
[3] = tested on: SF-268
[4] = tested on: DU-145
[5] = tested on: OVCAR-5
[6] = tested on: SN12C
[7] = tested on: A549
[8] = tested on: OVCAR-4
[9] = tested on: HCC 2998
[10] = tested on: RPMI-8226
[11] = tested on: BT-549
[12] = tested on: NCI-H460
[13] = tested on: NCI-H23
[14] = tested on: SF-295
[15] = tested on: SK-MEL-28
[16] = tested on: K562
[17] = tested on: SNB-19

Structure (SMILES)	GI50 [1]	GI50 [2]	GI50 [3]	GI50 [4]	GI50 [5]	GI50 [6]	GI50 [7]	GI50 [8]	GI50 [9]	GI50 [10]	GI50 [11]	GI50 [12]	GI50 [13]	GI50 [14]	GI50 [15]	GI50 [16]	GI50 [17]
FC(F)(Sc1ccccc1)c1nc2ccccc2o1	50 µM (inactive)	49 µM (inactive)	> 100 µM (inactive)	67.8 µM (inactive)	59.7 µM (inactive)	74.5 µM (inactive)	30.1 µM (inactive)	97.1 µM (inactive)	43.3 µM (inactive)	40.3 µM (inactive)	55.5 µM (inactive)	55.5 µM (inactive)	91 µM (inactive)	48.5 µM (inactive)	> 100 µM (inactive)	27 µM (inactive)	–
O=C1C2=Cc3ccccc3OC2(O)Oc2cc(O)cc(O)c21 (stereo not given)	> 100 µM (inactive)	–	> 100 µM (inactive)	> 100 µM (inactive)	> 100 µM (inactive)	> 100 µM (inactive)	> 100 µM (inactive)	92.3 µM (inactive)	> 100 µM (inactive)	> 100 µM (inactive)	> 100 µM (inactive)	41.5 µM (inactive)	59.2 µM (inactive)	> 100 µM (inactive)	> 100 µM (inactive)	81.7 µM (inactive)	–
COc1ccccc1C1(c2c(OC)c(=O)c2=O)SCCCS1	> 100 µM (inactive)	> 100 µM (inactive)	> 100 µM (inactive)	> 100 µM (inactive)	34.4 µM (inactive)	36.6 µM (inactive)	74.8 µM (inactive)	> 100 µM (inactive)	> 100 µM (inactive)	32 µM (inactive)	31.6 µM (inactive)	> 100 µM (inactive)	48.3 µM (inactive)	67 µM (inactive)	> 100 µM (inactive)	> 100 µM (inactive)	74 µM (inactive)
COC(=O)C/N=C1\NC(=S)N(Cc2ccc(OC)cc2)C12CCCC2	–	> 100 µM (inactive)	> 100 µM (inactive)	> 100 µM (inactive)	> 100 µM (inactive)	> 100 µM (inactive)	> 100 µM (inactive)	> 100 µM (inactive)	> 100 µM (inactive)	> 100 µM (inactive)	> 100 µM (inactive)	> 100 µM (inactive)	> 100 µM (inactive)	> 100 µM (inactive)	> 100 µM (inactive)	> 100 µM (inactive)	> 100 µM (inactive)
CC12OC(=O)[C@@]3(O)CCC4C(C[C@H]5O[C@]56CC=CC(=O)[C@]46C)C45OC[C@H]6C(=O)O[C@@H]1C[C@@]6(C)[C@H](C4=O)C23O5 (stereo not given in full)	1.53 µM (inactive)	–	0.309 µM (active)	2.56 µM (inactive)	3.34 µM (inactive)	0.953 µM (active)	3.83 µM (inactive)	2.01 µM (inactive)	3.12 µM (inactive)	0.308 µM (active)	0.818 µM (active)	1.94 µM (inactive)	0.746 µM (active)	4.25 µM (inactive)	0.394 µM (active)	0.53 µM (active)	3.85 µM (inactive)
O=C(/C=C/C=C/c1ccccc1)CCc1ccccc1	> 100 µM (inactive)	90.6 µM (inactive)	85.1 µM (inactive)	> 100 µM (inactive)	> 100 µM (inactive)	> 100 µM (inactive)	> 100 µM (inactive)	70.3 µM (inactive)	> 100 µM (inactive)	> 10 µM (inactive)	> 100 µM (inactive)	–	63.7 µM (inactive)	> 100 µM (inactive)	> 10 µM (inactive)	–	62.1 µM (inactive)
